Results taken from ChEMBL document CHEMBL4665776, “Design, synthesis and SAR study of novel C2-pyrazolopyrimidine amides and amide isosteres as allosteric integrase inhibitors” (Bioorg Med Chem Lett, 2020).

Key:
[1] = Volume of distribution at steady state in Sprague-Dawley rat at 1 mg/kg, iv; assay type: ADME, organism-based; conditions: in vivo, read-out: Vdss
[2] = Cmax in Sprague-Dawley rat at 1 mg/kg, iv; assay type: ADME, organism-based; set-up: route intravenous, dose 1 mg/kg; conditions: in vivo
[3] = Half life in Sprague-Dawley rat at 1 mg/kg, iv; assay type: ADME, organism-based; conditions: in vivo
[4] = system: Human immunodeficiency virus 1; assay: Antiviral activity against HIV-1 NL4-3 harboring integrase A128T mutant in human MT2 cells assessed as inhibition of viral out growth replication by HIV1 infectivity assay; assay type: functional, organism-based; conditions: Human immunodeficiency virus 1, NL4-3, MT2
[5] = system: Human immunodeficiency virus 1; assay: Antiviral activity against wild type HIV-1 NL4-3 in human MT2 cells assessed as inhibition of viral out growth replication in presence of 40 mg/ml human serum albumin by HIV1 infectivity assay; assay type: functional, organism-based; conditions: Human immunodeficiency virus 1, NL4-3, MT2
[6] = Displacement of [3H]2-tert-butoxy-2-(2-methyl-4-p-tolylquinolin-3-yl)acetic acid from LEDGF binding site of HIV1 integrase; set-up: species or system Human immunodeficiency virus 1
[7] = Cytotoxicity against human MT2 cells; assay type: cell-based
[8] = system: Human immunodeficiency virus 1; assay: Antiviral activity against wild type HIV-1 NL4-3 in human MT2 cells assessed as inhibition of viral out growth replication by HIV1 infectivity assay; assay type: functional, organism-based; conditions: Human immunodeficiency virus 1, NL4-3, MT2
[9] = Clearance in Sprague-Dawley rat at 1 mg/kg, iv; assay type: ADME, organism-based; conditions: in vivo
[10] = Metabolic stability in rat liver microsomes assessed as parent compound remaining at 0.5 uM incubated for 10 mins; assay type: ADME, Microsome; conditions: read-out: Stabilty

SMILES | Vd [1] [L/kg] | Cmax [2] [µM] | half-life [3] [min] | EC50 [4] [µM] | EC50 [5] [µM] | IC50 [6] [µM] | CC50 [7] [µM] | EC50 [8] [µM] | clearance [9] [L/h/kg] | remaining at 10 min, 0.5 µM [10] [%]
Cc1cc(CNC(=O)c2cc3nc(C)c([C@H](OC(C)(C)C)C(=O)O)c(-c4cc(F)c5c(c4C)CCCO5)n3n2)ccc1F | 0.6 | 0.007 | 24 | 0.035 | 0.236 | 0.042 | > 40 | 0.015 | 3.48 | 96
Cc1nc2cc(C(=O)NCc3ccc(F)cc3N3CCCC3=O)nn2c(-c2cc(F)c3c(c2C)CCCO3)c1[C@H](OC(C)(C)C)C(=O)O | – | – | – | – | 9.47 | 0.065 | > 40 | 2.6 | – | –
Cc1nc2cc(C(=O)NCC3CCOCC3)nn2c(-c2cc(F)c3c(c2C)CCCO3)c1[C@H](OC(C)(C)C)C(=O)O | – | – | – | – | 2.66 | 0.42 | > 40 | 0.608 | – | –
Cc1nc2cc(-c3ncc(-c4ccc(F)cc4)s3)nn2c(-c2cc(F)c3c(c2C)CCCO3)c1[C@H](OC(C)(C)C)C(=O)O | – | – | – | – | 0.296 | 0.195 | > 20 | 0.01 | – | –
COc1cc(CNC(=O)c2cc3nc(C)c([C@H](OC(C)(C)C)C(=O)O)c(-c4cc(F)c5c(c4C)CCCO5)n3n2)ccc1F | – | – | – | – | 0.34 | – | > 20 | 0.02 | – | –
Cc1nc2cc(-c3ncc(Cc4ccc(F)cc4)o3)nn2c(-c2cc(F)c3c(c2C)CCCO3)c1[C@H](OC(C)(C)C)C(=O)O | – | – | – | 0.056 | 0.324 | 0.021 | > 20 | 0.006 | – | –
CCc1cc(CNC(=O)c2cc3nc(C)c([C@H](OC(C)(C)C)C(=O)O)c(-c4cc(F)c5c(c4C)CCCO5)n3n2)ccc1F | – | – | – | – | 0.325 | 0.048 | > 40 | 0.015 | – | –
Cc1nc2cc(-c3ncc(Cc4ccc(F)cc4)s3)nn2c(-c2cc(F)c3c(c2C)CCCO3)c1[C@H](OC(C)(C)C)C(=O)O | 3.3 | 0.343 | 90 | 0.059 | 0.034 | 0.015 | > 20 | 0.001 | 3.18 | 100
COc1cc(F)ccc1CNC(=O)c1cc2nc(C)c([C@H](OC(C)(C)C)C(=O)O)c(-c3cc(F)c4c(c3C)CCCO4)n2n1 | – | – | – | – | 0.347 | 0.021 | > 40 | 0.053 | – | –
Cc1nc2cc(C(=O)NCc3ccc(F)cc3S(C)(=O)=O)nn2c(-c2cc(F)c3c(c2C)CCCO3)c1[C@H](OC(C)(C)C)C(=O)O | – | – | – | – | 6.57 | 0.069 | > 40 | 0.118 | – | –
Cc1nc2cc(C(=O)NCCN3CCOCC3)nn2c(-c2cc(F)c3c(c2C)CCCO3)c1[C@H](OC(C)(C)C)C(=O)O | – | – | – | – | 11.7 | 0.815 | > 40 | 5.92 | – | –
Cc1nc2cc(C(=O)NCc3ccc(F)c(C4CC4)c3)nn2c(-c2cc(F)c3c(c2C)CCCO3)c1[C@H](OC(C)(C)C)C(=O)O | – | – | – | – | 0.361 | 0.065 | > 40 | 0.014 | – | –
Cc1nc2cc(C(=O)NCC3CCCCC3)nn2c(-c2cc(F)c3c(c2C)CCCO3)c1[C@H](OC(C)(C)C)C(=O)O | – | – | – | – | 0.342 | – | > 40 | 0.012 | – | –
Cc1nc2cc(C(=O)NCc3ccc(F)cc3-n3cncn3)nn2c(-c2cc(F)c3c(c2C)CCCO3)c1[C@H](OC(C)(C)C)C(=O)O | – | – | – | – | 2.6 | 0.021 | > 40 | 0.508 | – | –
Cc1nc2cc(C(=O)NCCC(C)C)nn2c(-c2cc(F)c3c(c2C)CCCO3)c1[C@H](OC(C)(C)C)C(=O)O | – | – | – | – | 0.122 | 0.12 | > 40 | 0.018 | – | –
CCCc1cc(CNC(=O)c2cc3nc(C)c([C@H](OC(C)(C)C)C(=O)O)c(-c4cc(F)c5c(c4C)CCCO5)n3n2)ccc1F | – | – | – | – | 0.247 | 0.108 | > 20 | 0.012 | – | –
Cc1nc2cc(C(=O)NCCC3CCOCC3)nn2c(-c2cc(F)c3c(c2C)CCCO3)c1[C@H](OC(C)(C)C)C(=O)O | – | – | – | – | 1.77 | 0.095 | > 40 | 0.173 | – | –
Cc1nc2cc(-c3nc(Cc4ccc(F)cc4)no3)nn2c(-c2cc(F)c3c(c2C)CCCO3)c1[C@H](OC(C)(C)C)C(=O)O | – | – | – | – | 2.53 | 0.117 | > 20 | 0.028 | – | –
CCCNC(=O)c1cc2nc(C)c([C@H](OC(C)(C)C)C(=O)O)c(-c3cc(F)c4c(c3C)CCCO4)n2n1 | – | – | – | – | 2.34 | 1.12 | > 40 | 0.262 | – | –
Cc1nc2cc(C(=O)NCCC3CCCCC3)nn2c(-c2cc(F)c3c(c2C)CCCO3)c1[C@H](OC(C)(C)C)C(=O)O | – | – | – | – | 0.143 | 0.063 | > 40 | 0.06 | – | –
CNC(=O)c1cc(F)ccc1CNC(=O)c1cc2nc(C)c([C@H](OC(C)(C)C)C(=O)O)c(-c3cc(F)c4c(c3C)CCCO4)n2n1 | – | – | – | – | > 20 | 0.042 | > 40 | 3.2 | – | –
Cc1nc2cc(C(=O)NCc3ccc(F)cc3O)nn2c(-c2cc(F)c3c(c2C)CCCO3)c1[C@H](OC(C)(C)C)C(=O)O | – | – | – | – | 1.52 | 0.067 | > 40 | 0.037 | – | –
Cc1nc2cc(C(=O)NCc3ccc(F)cc3)nn2c(-c2cc(F)c3c(c2C)CCCO3)c1[C@H](OC(C)(C)C)C(=O)O | – | – | – | – | 0.591 | 0.044 | > 40 | 0.05 | – | –
Cc1nc2cc(C(=O)NCCC(C)(C)C)nn2c(-c2cc(F)c3c(c2C)CCCO3)c1[C@H](OC(C)(C)C)C(=O)O | 0.6 | 0.079 | 42 | 0.075 | 0.105 | 0.084 | > 40 | 0.013 | 2.82 | 86
